In test [1] the test system is HCV sub-genomic replicon, GS4.3. Description: Quantitation by ELISA of NPTII in the HCV sub-genomic replicon, GS4.3, Section B. The format is cell-based. As to conditions: Hepatitis C virus, read-out: Replicon EC50. In outline:
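NPTII marker protein in lysates was quantified by ELISA read at 450 nm after 72 h inhibitor exposure (3-fold series, final DMSO 1%, G418-free medium) of HuH-7 cells stably harbouring the subgenomic HCV replicon. Values relative to DMSO-treated controls; 4-parameter curves gave EC50.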

The next test concerns the target T1, NS3-NS4A protease (Hepatitis C virus genotype 1a, UniProt P27958).
T1 construct: Recombinant E. coli or Baculovirus full-length NS3 was diluted to 3.33 μM with assay buffer; made in house; host or cells: E. coli or baculovirus (BV) system
Description: NS3-NS4A protease assay (NS3 inhibition assay, RETS1 substrate), Section B. The format is biochemical. The following applies: read-out: NS3-NS4A IC50. In outline:
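Kinetic fluorescence read (335 nm excitation, 495 nm emission, 30 min) of RETS1 cleavage by NS3/NS4A-2 complex, 2 nM E. coli or 3 nM baculovirus NS3, after 10 min room-temperature compound pre-incubation. Four-parameter-fit IC50s converted to Ki by Cheng–Prusoff, Ki=IC50/(1+[S]/Km).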

Where two headings read alike, the source gives them in different places. Bounds are passed on as bounds.

T1 sequence (P27958 1027-1657): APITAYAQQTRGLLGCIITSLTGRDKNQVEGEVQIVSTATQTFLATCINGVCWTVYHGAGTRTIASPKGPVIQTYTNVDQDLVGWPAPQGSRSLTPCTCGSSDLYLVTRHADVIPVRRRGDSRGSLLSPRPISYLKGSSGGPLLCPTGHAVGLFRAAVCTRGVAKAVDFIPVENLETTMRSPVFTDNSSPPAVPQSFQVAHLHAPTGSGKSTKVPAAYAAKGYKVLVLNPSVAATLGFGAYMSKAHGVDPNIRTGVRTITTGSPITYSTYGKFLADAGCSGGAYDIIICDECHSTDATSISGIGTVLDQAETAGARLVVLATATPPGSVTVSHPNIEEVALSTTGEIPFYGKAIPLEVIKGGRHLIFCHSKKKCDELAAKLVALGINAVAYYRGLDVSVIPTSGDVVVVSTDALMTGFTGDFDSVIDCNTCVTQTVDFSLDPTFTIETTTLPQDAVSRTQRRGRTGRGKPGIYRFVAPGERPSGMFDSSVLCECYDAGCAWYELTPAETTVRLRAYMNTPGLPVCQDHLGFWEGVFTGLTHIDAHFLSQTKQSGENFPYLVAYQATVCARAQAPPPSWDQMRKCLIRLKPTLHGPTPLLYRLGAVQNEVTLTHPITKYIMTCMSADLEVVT

The term EC50 denotes the concentration giving half of the maximal effect. For orientation: IC50 means the concentration needed to halve the response being measured. With `CC(C)(C)OC(=O)N[C@H]1CCCCC/C=C\[C@@H]2C[C@@]2(C(=O)NS(=O)(=O)C2CC2)NC(=O)[C@@H]2C[C@@H](OC(=O)N3CCc4nc(Nc5ccccc5)sc4C3)CN2C1=O` [AR00311814, (1S,4R,6S,14S,18R)-2-Phenylamino-6,7-dihydro-4H-thiazolo[5,4-c]pyridine-5-carboxylic acid 14-tert-butoxycarbonylamino-4-cyclopropanesulfonylaminocarbonyl-2,15-dioxo-3,16-diaza-tricyclo[14.3.0.0^4,6]nonadec-7-en-18-yl ester], in test [1] (GS4.3 cells, 72 h incubation), the EC50 is less than 10000 nM. Further, the IC50 on NS3-NS4A protease was less than 100 nM.
Turning to `CC(C)(C)OC(=O)N[C@H]1CCCCC/C=C\[C@@H]2C[C@@]2(C(=O)NS(=O)(=O)C2CC2)NC(=O)[C@@H]2C[C@@H](NC(=S)N3CCc4ccccc4C3)CN2C1=O` [AR00304012, (1S,4R,6S,14S,18R)-{4-Cyclopropanesulfonylaminocarbonyl-18-[(3,4-dihydro-1H-isoquinoline-2-carbothioyl)-amino]-2,15-dioxo-3,16-diaza-tricyclo[14.3.0.0^4,6]nonadec-7-en-14-yl}-carbamic acid tert-butyl ester], the EC50 in test [1] (GS4.3 cells, 72 h incubation) was less than 1000 nM. At NS3-NS4A protease, the IC50 was less than 100 nM.
`CC(C)(C)OC(=O)N[C@H]1CCCCC/C=C\[C@@H]2C[C@@]2(C(=O)O)NC(=O)[C@@H]2C[C@@H](OC(=O)N3CCc4c(F)cccc4C3)CN2C1=O` [AR00294384, (1S,4R,6S,14S,18R)-14-tert-Butoxycarbonylamino-18-(5-fluoro-3,4-dihydro-1H-isoquinoline-2-carbonyloxy)-2,15-dioxo-3,16-diaza-tricyclo[14.3.0.0^4,6]nonadec-7-ene-4-carboxylic acid]: in test [1] (GS4.3 cells, 72 h incubation), the EC50 was less than 10000 nM. Also, the IC50 on NS3-NS4A protease is less than 1000 nM.
On to `CC(C)(C)CC(=O)N[C@H]1CCCCC/C=C\[C@@H]2C[C@@]2(C(=O)NS(=O)(=O)C2CC2)NC(=O)[C@@H]2C[C@@H](OC(=O)N3Cc4ccc(Cl)cc4C3)CN2C1=O` [AR00334225, (1S,4R,6S,14S,18R)-5-Chloro-1,3-dihydro-isoindole-2-carboxylic acid 4-cyclopropanesulfonylaminocarbonyl-14-(3,3-dimethyl-butyrylamino)-2,15-dioxo-3,16-diaza-tricyclo[14.3.0.0^4,6]nonadec-7-en-18-yl ester], for which, in test [1] (GS4.3 cells, 72 h incubation), the EC50 was less than 1000 nM. Also, the IC50 at NS3-NS4A protease was less than 100 nM.
In the case of `CCCCS(=O)(=O)NC(=O)[C@@]12C[C@H]1/C=C\CCCCC[C@H](NC(=O)OC(C)(C)C)C(=O)N1C[C@H](OC(=O)N3CCc4ccccc4C3)C[C@H]1C(=O)N2` [AR00261409, (1S,4R,6S,14S,18R)-3,4-Dihydro-1H-isoquinoline-2-carboxylic acid 4-(butane-1-sulfonylaminocarbonyl)-14-tert-butoxycarbonylamino-2,15-dioxo-3,16-diaza-tricyclo[14.3.0.0^4,6]nonadec-7-en-18-yl ester], in test [1] (72 h), the EC50 is less than 10000 nM. Further, at NS3-NS4A protease, the IC50 was less than 100 nM.
For `CC(C)(C)NC(=O)N[C@H]1CCCCC/C=C\[C@@H]2C[C@@]2(C(=O)NS(=O)(=O)C2CC2)NC(=O)[C@@H]2C[C@@H](OC(=O)N3Cc4ccc(Cl)cc4C3)CN2C1=O` [AR00320446, (1S,4R,6S,14S,18R)-5-Chloro-1,3-dihydro-isoindole-2-carboxylic acid 14-(3-tert-butyl-ureido)-4-cyclopropanesulfonylaminocarbonyl-2,15-dioxo-3,16-diaza-tricyclo[14.3.0.0^4,6]nonadec-7-en-18-yl ester], the EC50 in test [1] (GS4.3 cells, 72 h incubation) is less than 100 nM. Also, the IC50 at NS3-NS4A protease is less than 100 nM.
`O=C(N[C@H]1CCCCC/C=C\[C@@H]2C[C@@]2(C(=O)O)NC(=O)[C@@H]2C[C@@H](OC(=O)N3Cc4ccccc4C3)CN2C1=O)O[C@H]1CCOC1` [AR00320075, (1S,4R,6S,14S,18R)-18-(1,3-Dihydro-isoindole-2-carbonyloxy)-2,15-dioxo-14-(tetrahydro-furan-3S-yloxycarbonylamino)-3,16-diaza-tricyclo[14.3.0.0^4,6]nonadec-7-ene-4-carboxylic acid]: the EC50 in test [1] (GS4.3 cells, 72 h incubation) was less than 10000 nM. Further, the IC50 on NS3-NS4A protease was less than 1000 nM.
For `CC(C)Nc1nc(-c2ccc3c(c2)CN(C(=O)O[C@@H]2C[C@H]4C(=O)N[C@]5(C(=O)NS(=O)(=O)C6CC6)C[C@H]5/C=C\CCCCC[C@H](NC(=O)OC(C)(C)C)C(=O)N4C2)C3)cs1` [AR00365019, (1S,4R,6S,14S,18R)-5-(2-Isopropylamino-thiazol-4-yl)-1,3-dihydro-isoindole-2-carboxylic acid 14-tert-butoxycarbonylamino-4-cyclopropanesulfonylaminocarbonyl-2,15-dioxo-3,16-diaza-tricyclo[14.3.0.0^4,6]nonadec-7-en-18-yl ester], the EC50 in test [1] (GS4.3 cells, 72 h incubation) was less than 100 nM. At NS3-NS4A protease, the IC50 is less than 100 nM.
For `C[C@@H]1CN(C(=O)O[C@@H]2C[C@H]3C(=O)N[C@]4(C(=O)NS(=O)(=O)C5CC5)C[C@H]4/C=C\CCCCC[C@H](NC(=O)OC(C)(C)C)C(=O)N3C2)Cc2ccccc21` [AR00333463, (1S,4R,6S,14S,18R)-4S-Methyl-3,4-dihydro-1H-isoquinoline-2-carboxylic acid 14-tert-butoxycarbonylamino-4-cyclopropanesulfonylaminocarbonyl-2,15-dioxo-3,16-diaza-tricyclo[14.3.0.0^4,6]nonadec-7-en-18-yl ester], in test [1] (GS4.3 cells, 72 h incubation), the EC50 is less than 100 nM. Further, on NS3-NS4A protease, the IC50 was less than 100 nM.
Regarding `CC(C)(C)OC(=O)N[C@H]1CCCCC/C=C\[C@@H]2C[C@@]2(C(=O)NS(=O)(=O)C2CC2)NC(=O)[C@@H]2C[C@@H](OC(=O)N3CCc4cccc(C(F)(F)F)c4C3)CN2C1=O` [AR00298997, (1S,4R,6S,14S,18R)-8-Trifluoromethyl-3,4-dihydro-1H-isoquinoline-2-carboxylic acid 14-tert-butoxycarbonylamino-4-cyclopropanesulfonylaminocarbonyl-2,15-dioxo-3,16-diaza-tricyclo[14.3.0.0^4,6]nonadec-7-en-18-yl ester], in test [1] (GS4.3 cells, 72 h incubation), the concentration giving a half-maximal response (EC50) is less than 100 nM. At NS3-NS4A protease, the IC50 is less than 100 nM.
For `O=C(NC1CCCC1)N[C@H]1CCCCC/C=C\[C@@H]2C[C@@]2(C(=O)O)NC(=O)[C@@H]2C[C@@H](OC(=O)N3CCc4ccccc4C3)CN2C1=O` [AR00294378, (1S,4R,6S,14S,18R)-14-(3-Cyclopentyl-ureido)-18-(3,4-dihydro-1H-isoquinoline-2-carbonyloxy)-2,15-dioxo-3,16-diaza-tricyclo[14.3.0.0^4,6]nonadec-7-ene-4-carboxylic acid], the EC50 in test [1] (GS4.3 cells, 72 h incubation) was less than 10000 nM. For the same compound, the IC50 on NS3-NS4A protease is less than 1000 nM.
With `COc1ccc2[nH]c3c(c2c1)CCN(C(=O)O[C@@H]1C[C@H]2C(=O)N[C@]4(C(=O)O)C[C@H]4/C=C\CCCCC[C@H](NC(=O)OC(C)(C)C)C(=O)N2C1)C3` [AR00320577, (1S,4R,6S,14S,18R)-14-tert-Butoxycarbonylamino-18-(6-methoxy-1,3,4,9-tetrahydro-b-carboline-2-carbonyloxy)-2,15-dioxo-3,16-diaza-tricyclo[14.3.0.0^4,6]nonadec-7-ene-4-carboxylic acid], the EC50 in test [1] (GS4.3 cells, 72 h incubation) is less than 10000 nM. Besides, at NS3-NS4A protease, the IC50 is less than 1000 nM.
Taken in the same sequence, the figures for `O=C(N[C@H]1CCCCCC=C[C@@H]2C[C@@]2(C(=O)O)NC(=O)[C@@H]2C[C@@H](OC(=O)N3CCc4cccc(C(F)(F)F)c4C3)CN2C1=O)OC1CCCC1` [AR00304075, (1S,4R,6S,14S,18R)-14-Cyclopentyloxycarbonylamino-2,15-dioxo-18-(8-trifluoromethyl-3,4-dihydro-1H-isoquinoline-2-carbonyloxy)-3,16-diaza-tricyclo[14.3.0.0^4,6]nonadec-7-ene-4-carboxylic acid] were less than 10000 nM and less than 1000 nM.

The record behind these values is US7491794B2, “Macrocyclic compounds as inhibitors of viral replication” (Intermune, Inc., priority 2003, dated 2009).
